For experiment [1], the target named is human ATX (Homo sapiens (Human), UniProt Q13822). The experiment is described as follows: Human ATX enzyme inhibition assay (fluorescence quenching, MR121 substrate). To be noted: human His-tagged ATX 30 nM, MR121 substrate 1 μM. The class given is biochemical. The method, then: Production of Human Full Length ATX, with and without His Tag
Autotaxin (ATX-ENPP2) cloning: cDNA was prepared from commercial human hematopoietic cells total RNA and used as template in overlapping PCR to generate a full length human ENPP2 ORF with or without a 3′-6× His tag. These full length inserts were cloned into the pcDNA3.1V5-His TOPO (Invitrogen) vector. The DNA sequences of several single clones were verified. The DNA from a correct full length clone was used to transfect Hek293 cells for verification of protein expression. The sequence of the encoded ENPP2 conforms to Swissprot entry Q13822, with or without the additional C-terminal 6× His tag.
ATX Fermentation: Recombinant protein was produced by large-scale transient transfection in 20 L controlled stirred tank bioreactors (Sartorius). During cell growth and transfection, temperature, stirrer speed, pH and dissolved oxygen concentration were maintained at 37° C., 120 rpm, 7.1 and 30% DO, respectively. FreeStyle 293-F cells (Invitrogen) were cultivated in suspension in FreeStyle 293 medium (Invitrogen) and transfected at ca. 1-1.5×10E6 cells/mL with above plasmid DNAs using X-tremeGENE Ro-1539 (commercial product, Roche Diagnostics) as complexing agent. Cells were fed a concentrated nutrient solution (J Immunol Methods 194 (1996), 19, 1-199 (page 193)) and induced by sodium butyrate (2 mM) at 72 h post-transfection and harvested at 96 h post-transfection. Expression was analyzed by Western Blot, enzymatic assay and/or analytical IMAC chromatography. After cooling the cell suspension to 4° C. in a flow-through heat exchanger, cell separation and sterile filtration of supernatant was performed by filtration through Zeta Plus 60M02 E16 (Cuno) and Sartopore 2 XLG (Sartorius) filter units. The supernatant was stored at 4° C. prior to purification.
ATX Purification: 20 liter of culture supernatant were conditioned for ultrafiltration by adding Brij 35 to a final concentration of 0.02% and by adjusting the pH to 7.0 using 1 M HCl. Then the supernatant was first microfiltred through a 0.2 µm Ultran-Pilot Open Channel PES filter (Whatman) and afterwards concentrated to 1 liter through an Ultran-Pilot Screen Channel PES filter with 30 kDa MWCO (Whatman). Prior to IMAC chromatography, NiSO4 was added to a final concentration of 1 mM. […] The column was washed stepwise with the same buffer containing 20 mM, 40 mM and 50 mM imidazole, respectively. The protein was subsequently eluted using a linear gradient to 0.5 M imidazole in 15 column volumes. ATX containing fractions were pooled and concentrated using an Amicon cell equipped with a 30 kDa PES filter membrane. […] Final yield of protein after purification was 5-10 mg ATX per liter of culture supernatant. The protein was stored at −80° C.
Human ATX Enzyme Inhibition Assay
Test compounds (10 mM stock in DMSO, 8 μL) were obtained in 384 well sample plates (Corning Costar #3655) and diluted with 8 μL DMSO. […] Then, 15 μL of 41.7 nM ATX solution was added (30 nM final concentration), mixed five times and then incubated for 15 minutes at 30° C. 10 μL of MR121 substrate solution was added (1 μM final concentration), mixed 30 times and then incubated for 15 minutes at 30° C.

Experiment [2] addresses Human carbonic anhydrase II (hCA-II) (Homo sapiens (Human), UniProt P00918). The experiment is described as follows: Human carbonic anhydrase-II inhibition assay (absorbance, 4-NPA substrate). To be noted: hCA II 8 nM, 4-NPA 2.5 mM, absorbance 340 nm; read-out: CA-II IC50. The format is biochemical. How it is done:
Human Carbonic Anhydrase-II Inhibition Assay
Then 30 μL of 16 nM hCA II solution was added (8 nM final concentration), mixed five times. 30 μL of 4-NPA substrate solution was added (2.5 mM final concentration), mixed five times.

In general, IC50 refers to the concentration at which inhibition is half-maximal. For the molecule `NS(=O)(=O)c1ccc(C(=O)N2C[C@H]3CN(C(=O)OCc4ccc(OC(F)(F)F)cc4)C[C@]3(F)C2)c(F)c1` (relative stereo) [Example 2.00, trans-5-(2-Fluoro-4-sulfamoyl-benzoyl)-3a-fluoro-hexahydro-pyrrolo[3,4-c]pyrrole-2-carboxylic acid 4-trifluoromethoxy-benzyl ester], the half-maximal inhibitory concentration (IC50) in experiment [1] was 7 nM; in experiment [2], 6 nM.
Take `CO[C@@]12CN(C(=O)OCc3ccc(OC(F)(F)F)cc3)C[C@H]1CN(C(=O)c1ccc(S(N)(=O)=O)cc1)C2` (single isomer, unassigned) [Example 5.01, (+)-trans-5-(4-sulfamoyl-benzoyl)-3a-methoxy-hexahydro-pyrrolo[3,4-c]pyrrole-2-carboxylic acid 4-trifluoromethoxy-benzyl ester]: the values for the 50% inhibitory concentration (IC50) in experiment [1] and in experiment [2] were 6 nM and 27 nM, respectively.
As to `CO[C@@]12CN(C(=O)OCc3ncc(C(F)(F)F)cc3NC(=O)C(C)(C)C)C[C@H]1CN(C(=O)c1ccc(S(N)(=O)=O)cc1)C2` (single isomer, unassigned) [Example 5.03, (+)-trans-5-(4-sulfamoyl-benzoyl)-3a-methoxy-hexahydro-pyrrolo[3,4-c]pyrrole-2-carboxylic acid 3-(2,2-dimethyl-propionylamino)-5-trifluoromethyl-pyridin-2-ylmethyl ester], the values for the half-maximal inhibitory concentration (IC50) in experiment [1] and in experiment [2] were 13 nM and 20 nM, respectively.
For `CO[C@@]12CN(C(=O)c3cc(OCC4CCOCC4)nc(C4CC4)c3)C[C@H]1CN(C(=O)c1ccc(S(N)(=O)=O)cc1F)C2` (relative stereo) [Example 1.02, trans-4-[5-[2-cyclopropyl-6-(oxan-4-ylmethoxy)pyridine-4-carbonyl]-3a-methoxy-3,4,6,6a-tetrahydro-1H-pyrrolo[3,4-c]pyrrole-2-carbonyl]-3-fluorobenzenesulfonamide], the results for the IC50 in experiment [1] and in experiment [2] were 6 nM and 10 nM, respectively.
On to `NS(=O)(=O)c1ccc(C(=O)N2C[C@@H]3CN(C(=O)c4cc(OCC5CCOCC5)nc(C5CC5)c4)C[C@@]3(F)C2)c(F)c1` (relative stereo) [Example 3.02, trans-4-[5-[2-cyclopropyl-6-(oxan-4-ylmethoxy)pyridine-4-carbonyl]-3a-fluoro-3,4,6,6a-tetrahydro-1H-pyrrolo[3,4-c]pyrrole-2-carbonyl]-3-fluorobenzenesulfonamide], for which the IC50 in experiment [1] was found to be 8 nM; in experiment [2], 6 nM.
In the case of `C[C@@]12CN(C(=O)OCc3ccc(OC(F)(F)F)cc3)C[C@H]1CN(C(=O)c1ccc(S(N)(=O)=O)cc1)C2` [Example 4.00, (+)-(3aR,6aR)-3a-Methyl-5-(4-sulfamoyl-benzoyl)-hexahydro-pyrrolo[3,4-c]pyrrole-2-carboxylic acid 4-trifluoromethoxy-benzyl ester], the IC50 was found to be 6 nM in experiment [1] and 95 nM in experiment [2].
